Laboratory results: patent US6403606B1, “Thienopyridine derivatives and their use” (Takeda Chemical Industries Ltd., priority 1996, dated 2002)

First: CCOC(=O)c1c(CN(CC)CC)nc2sc3c(c2c1-c1ccc(CC)cc1)CCN(S(=O)(=O)c1ccccc1)C3 [Example 42A]
Second: CCOC(=O)c1c(CN(CC)CC)nc2sc3c(c2c1-c1ccc(CC)cc1)CCN(C(=O)Nc1ccccc1)C3 [Example 36A]
The melting point of the first is higher: 140 to 141 °C for the first, 112 to 114 °C for the second.

First: CCOC(=O)c1c(CCc2c[nH]nn2)nc2sc3c(c2c1-c1ccc(OC)c(OC)c1)CCN(C(=O)c1ccccc1)C3 [Example 24A, ethyl 7-benzoyl-4-(3,4-dimethoxyphenyl)-5,6,7,8-tetrahydro-2-[2-(1,2,3-triazol-4-yl)ethyl]thieno[2,3-b:5,4-c′]dipyridine-3-carboxylate]
Second: CCOC(=O)c1c(Cn2cncn2)nc2sc3c(c2c1-c1ccc(OC)c(OC)c1)CCN(C(=O)c1ccccc1)C3 [Example 20A, ethyl 7-benzoyl-4-(3,4-dimethoxyphenyl)-5,6,7,8-tetrahydro-2-(1,2,4-triazol-1-ylmethyl)thieno[2,3-b:5,4-c′]dipyridine-3-carboxylate]
The melting point of the first is lower: 184 to 185 °C for the first, 193 to 194 °C for the second.

Compared with COc1ccc(-c2c(Cl)c(CNC(=O)Cn3cncn3)nc3sc4c(c23)CCN(Cc2ccccc2)C4)cc1OC [Example 20B, 7-benzyl-3-chloro-4-(3,4-dimethoxyphenyl)-5,6,7,8-tetrahydro-2-(1,2,4-triazol-1-ylacetylaminomethyl)thieno[2,3-b:5,4-c′]dipyridine], COc1ccc(-c2c(Cl)c(Cn3cncn3)nc3sc4c(c23)CCN(Cc2ccccc2)C4)cc1OC [Example 26B, 7-benzyl-3-chloro-4-(3,4-dimethoxyphenyl)-5,6,7,8-tetrahydro-2-(1,2,4-triazol-1-ylmethyl)thieno[2,3-b:5,4-c′]dipyridine] is higher in melting point: 101 to 102 °C for the first, 165 to 166 °C for the second.

First: CCOC(=O)c1c(Cn2cncn2)nc2sc3c(c2c1-c1ccc(OC)c(OC)c1)CCCN3C(=O)OCc1ccccc1 [Example 56A, ethyl 8-benzyloxycarbonyl-4-(3,4-dimethoxyphenyl)-5,6,7,8-tetrahydro-2-(1,2,4-triazol-1-ylmethyl)thieno[2,3-b:5,4-b′]dipyridine-3-carboxylate]
Second: CCOC(=O)c1c(Cn2cncn2)nc2sc3c(c2c1-c1ccc(OC)c(OC)c1)CN(C(=O)OCc1ccccc1)CC3 [Example 59A, ethyl 6-benzyloxycarbonyl-4-(3,4-dimethoxyphenyl)-5,6,7,8-tetrahydro-2-(1,2,4-triazol-1-ylmethyl)thieno[2,3-b:4,5-c′]dipyridine-3-carboxylate]
The melting point of the first is higher: 184 to 185 °C for the first, 169 to 170 °C for the second.

Compared with COc1ccc(-c2c(Cl)c(CNC(C)(C)C)nc3sc4c(c23)CCN(C(=O)c2ccccc2)C4)cc1OC [Example 8B, 7-benzoyl-2-(tert-butylaminomethyl)-3-chloro-4-(3,4-dimethoxyphenyl)-5,6,7,8-tetrahydrothieno[2,3-b:5,4-c′]dipyridine], COc1ccc(-c2c(Cl)c(CNC(C)(C)C)nc3sc4c(c23)CCN(Cc2ccccc2)C4)cc1OC [Example 3B, 7-benzyl-2-(tert-butylaminomethyl)-3-chloro-4-(3,4-dimethoxyphenyl)-5,6,7,8-tetrahydrothieno[2,3-b:5,4-c′]dipyridine] is lower in melting point: 204 to 205 °C for the first, 134 to 135 °C for the second.

Compared with CCOC(=O)c1c(CN(CC)CC)nc2sc3c(c2c1-c1ccc(OC)c(OC)c1)CN(C(=O)c1ccc(Cl)cc1)CC3 [Example 53A, ethyl 6-(4-chlorobenzoyl)-2-diethylaminomethyl-4-(3,4-dimethoxyphenyl)-5,6,7,8-tetrahydrothieno[2,3-b:4,5-c′]dipyridine-3-carboxylate], CCOC(=O)c1c(CCn2cncn2)nc2sc3c(c2c1-c1ccc(OC)c(OC)c1)CCN(C(=O)c1ccc(Cl)cc1)C3 [Example 26A, ethyl 7-(4-chlorobenzoyl)-4-(3,4-dimethoxyphenyl)-5,6,7,8-tetrahydro-2-[2-(1,2,4-triazol-1-yl)ethyl]thieno[2,3-b:5,4-c′]dipyridine-3-carboxylate] is higher in melting point: 91 to 92 °C for the first, 195 to 197 °C for the second.

First: CCOC(=O)c1c2c(cn1CN(CC)CC)C1=C(NC(C(C)=O)CC1)[SH]2c1ccc(OC)c(OC)c1 (stereo not shown) [Example 32A, ethyl 2-acetyl-8-(3,4-dimethoxyphenyl)-6-diethylaminomethyl-2,3-dihydro-1H-pyrrolo[3′,4′:4,5]thieno[2,3-b]pyridine-7-carboxylate]
Second: CCOC(=O)c1c2c(cn1CN(CC)CC)C1=C(NC(C(=O)OCc3ccccc3)CC1)[SH]2c1ccc(OC)c(OC)c1 (stereo not shown) [Example 16A, ethyl 2-benzyloxycarbonyl-8-(3,4-dimethoxyphenyl)-6-diethylaminomethyl-2,3-dihydro-1H-pyrrolo[3′,4′:4,5]-thieno[2,3-b]pyridine-7-carboxylate]
The melting point of the first is lower: 123 to 124 °C for the first, 142 to 143 °C for the second.

First: COc1ccc(-c2c(Cl)c(CNC3CC3)nc3sc4c(c23)CCN(Cc2ccccc2)C4)cc1OC [Example 5B, 7-benzyl-3-chloro-2-(cyclopropylaminomethyl)-4-(3,4-dimethoxyphenyl)-5,6,7,8-tetrahydrothieno[2,3-b:5,4-c′]dipyridine]
Second: CCNCc1nc2sc3c(c2c(-c2ccc(OC)c(OC)c2)c1Cl)CCN(Cc1ccccc1)C3 [Example 1B, 7-benzyl-3-chloro-4-(3,4,-dimethoxyphenyl)-2-ethylaminomethyl-5,6,7,8-tetrahydrothieno[2,3-b:5,4-c′]dipyridine]
The melting point of the first is lower: 131 to 132 °C for the first, 135 to 136 °C for the second.

First: CCOC(=O)c1c2c(cn1Cn1cncn1)C1=C(NC(C(=O)OCc3ccccc3)CC1)[SH]2c1ccc(OC)c(OC)c1 (stereo not shown) [Example 17A, ethyl 2-benzyloxycarbonyl-8-(3,4-dimethoxyphenyl)-2,3-dihydro-6-(1,2,4-triazol-1-ylmethyl)-1H-pyrrolo[3′,4′:4,5]thieno[2,3-b]pyridine-7-carboxylate]
Second: CCOC(=O)c1c(Cn2cncn2)nc2sc3c(c2c1-c1ccc(OC)c(OC)c1)CCNC3 [Example 21A, ethyl 4-(3,4-dimethoxyphenyl)-5,6,7,8-tetrahydro-2-(1,2,4-triazol-1-ylmethyl)thieno[2,3-b:5,4-c′]dipyridine-3-carboxylate]
The melting point of the first is higher: 166 to 167 °C for the first, 164 to 165 °C for the second.

First: CCOC(=O)c1c(CN2CCC(C(=O)OCC)CC2)nc2sc3c(c2c1-c1ccc(OC)c(OC)c1)CCN(C(=O)c1ccc(Cl)cc1)C3 [Example 3A, ethyl 7-(4-chlorobenzoyl)-4-(3,4-dimethoxyphenyl)-2-(4-ethoxycarbonylpiperidinomethyl)-5,6,7,8-tetrahydrothieno-[2,3-b:5,4-c′]dipyridine-3-carboxylate]
Second: CCOC(=O)c1c(CN(CC)CC)nc2sc3c(c2c1-c1ccc(Cl)cc1)CCN(C(=O)c1ccccc1)C3 [Example 4A, ethyl 7-benzoyl-4-(4-chlorophenyl)-2-(N,N-diethylaminomethyl)-5,6,7,8-tetrahydrothieno[2,3-b:5,4-c′]dipyridine-3-carboxylate]
The melting point of the first is lower: 99 to 101 °C for the first, 177 to 178 °C for the second.

First: CCOC(=O)c1c(Cn2cncn2)nc2sc3ncccc3c2c1-c1ccc(OC)c(OC)c1 [Example 65A, ethyl 4-(3,4-dimethoxyphenyl)-2-(1,2,4-triazol-1-ylmethyl)thieno[2,3-b:5,4-b′]dipyridine-3-carboxylate]
Second: CCOC(=O)c1c(Cn2cncn2)nc2sc3cnccc3c2c1-c1ccc(OC)c(OC)c1 [Example 47A, ethyl 4-(3,4-dimethoxyphenyl)-2-(1,2,4-triazol-1-ylmethyl)thieno[2,3-b:5,4-c′]dipyridine-3-carboxylate]
The melting point of the first is higher: 180 to 182 °C for the first, 172 to 174 °C for the second.

First: CCN(CC)Cc1nc2sc3c(c2c(-c2ccc(OC)c(OC)c2)c1Cl)CCN(Cc1ccccc1)C3 [Example 2B, 7-benzyl-3-chloro-2-(N,N-diethylaminomethyl)-4-(3,4-dimethoxyphenyl)-5,6,7,8-tetrahydrothieno[2,3-b:5,4-c′]dipyridine]
Second: CCC(C)(C)NCc1nc2sc3c(c2c(-c2ccc(OC)c(OC)c2)c1Cl)CCN(Cc1ccccc1)C3 [Example 4B, 2-(tert-amylaminomethyl)-7-benzyl-3-chloro-4-(3,4-dimethoxyphenyl)-5,6,7,8-tetrahydrothieno[2,3-b:5,4-c′]dipyridine]
The melting point of the first is higher: 150 to 151 °C for the first, 128 to 129 °C for the second.

First: COc1ccc(-c2c(Cl)c(CN3CCN(C(C)=O)CC3)nc3sc4c(c23)CCN(Cc2ccccc2)C4)cc1OC [Example 14B, 2-(4-acetylpiperazin-1-ylmethyl)-7-benzyl-3-chloro-4-(3,4-dimethoxyphenyl)-5,6,7,8-tetrahydrothieno[2,3-b:5,4-c′]dipyridine]
Second: COc1ccc(-c2c(Cl)c(COc3ccccn3)nc3sc4c(c23)CCN(Cc2ccccc2)C4)cc1OC [Example 6B, 7-benzyl-3-chloro-4-(3,4-dimethoxyphenyl)-2-(2-pyridyloxymethyl)-5,6,7,8-tetrahydrothieno[2,3-b:5,4-c′]dipyridine]
The melting point of the first is higher: 183 to 184 °C for the first, 165 to 167 °C for the second.

Compared with COc1ccc(-c2c(Cl)c(CNS(=O)(=O)c3ccccc3)nc3sc4c(c23)CCN(Cc2ccccc2)C4)cc1OC [Example 19B, 7-benzyl-3-chloro-4-(3,4-dimethoxyphenyl)-2-phenylsulfonylaminomethyl-5,6,7,8-tetrahydrothieno[2,3-b:5,4-c′]dipyridine], COc1ccc(-c2c(Cl)c(CN3CCCC3=O)nc3sc4cnccc4c23)cc1OC [Example 36B, 3-chloro-4-(3,4-dimethoxyphenyl)-2-(2-oxopyrrolidin-1-ylmethyl)thieno[2,3-b:5,4-c′]dipyridine] is higher in melting point: 153 to 154 °C for the first, 228 to 230 °C for the second.

First: CCOC(=O)c1c(CN(CC)CC)nc2sc3ncccc3c2c1-c1ccc(OC)c(OC)c1 [Example 64A, ethyl 2-diethylaminomethyl-4-(3,4-dimethoxyphenyl)thieno[2,3-b:5,4-b′]dipyridine-3-carboxylate]
Second: CCOC(=O)c1c(Cn2cncn2)nc2sc3c(c2c1-c1ccc(OC)c(OC)c1)CNCC3 [Example 63A, ethyl 4-(3,4-dimethoxyphenyl)-5,6,7,8-tetrahydro-2-(1,2,4-triazol-1-ylmethyl)thieno[2,3-b:4,5-c′]dipyridine-3-carboxylate]
The melting point of the first is lower: 156 to 157 °C for the first, 180 to 181 °C for the second.

In the case of COc1cc(-c2c(Cl)c(CNC(C)(C)C)nc3sc4c(c23)CCNC4)ccc1OC(C)C [Example 11B, 2-(tert-butylaminomethyl)-3-chloro-4-(4-isopropoxy-3-methoxyphenyl)-5,6,7,8-tetrahydrothieno[2,3-b:5,4-c′]dipyridine], the melting point is reported as 157 to 158 °C.
